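Five concentrations, 48 hours, 96-well plates. Abbreviation: GI50, concentration required for 50% inhibition of growth. TGI denotes the concentration required for complete inhibition of growth.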
Key:
Assay in all cases: DTP human tumour cell line panel, 48 h
RPMI-8226 leukemia = system: RPMI-8226 leukemia
UO-31 renal = system: UO-31 renal
SK-MEL-2 melanoma = system: SK-MEL-2 melanoma
OVCAR-3 ovarian = system: OVCAR-3 ovarian
U251 CNS = system: U251 CNS
OVCAR-8 ovarian = system: OVCAR-8 ovarian
EKVX NSCLC = system: EKVX NSCLC
HCT-15 colon = system: HCT-15 colon
OVCAR-4 ovarian = system: OVCAR-4 ovarian
LOX IMVI melanoma = system: LOX IMVI melanoma
HT29 colon = system: HT29 colon
SNB-78 CNS = system: SNB-78 CNS
UACC-257 melanoma = system: UACC-257 melanoma
DMS 273 small cell lung = system: DMS 273 small cell lung
786-0 renal = system: 786-0 renal
KM20L2 colon = system: KM20L2 colon
NCI-H522 lung = system: NCI-H522 lung
HOP-92 NSCLC = system: HOP-92 NSCLC
UACC-62 melanoma = system: UACC-62 melanoma
SW-620 colon = system: SW-620 colon
XF 498 CNS = system: XF 498 CNS
CCRF-CEM leukemia = system: CCRF-CEM leukemia
HOP-62 NSCLC = system: HOP-62 NSCLC
SF-539 CNS = system: SF-539 CNS
SR leukemia = system: SR leukemia
OVCAR-5 ovarian = system: OVCAR-5 ovarian
LXFL 529 NSCLC = system: LXFL 529 NSCLC
HL-60(TB) leukemia = system: HL-60(TB) leukemia
SK-MEL-5 melanoma = system: SK-MEL-5 melanoma
SF-268 CNS = system: SF-268 CNS
SF-295 CNS = system: SF-295 CNS
M19-MEL melanoma = system: M19-MEL melanoma
M14 melanoma = system: M14 melanoma
SNB-75 CNS = system: SNB-75 CNS
ACHN renal = system: ACHN renal
COLO 205 colon = system: COLO 205 colon
TK-10 renal = system: TK-10 renal
A549 NSCLC = system: A549 NSCLC
SK-OV-3 ovarian = system: SK-OV-3 ovarian
DLD-1 colon = system: DLD-1 colon
HCC-2998 colon = system: HCC-2998 colon
NCI-H460 lung = system: NCI-H460 lung
NCI-H226 lung = system: NCI-H226 lung
HOP-18 NSCLC = system: HOP-18 NSCLC
MALME-3M melanoma = system: MALME-3M melanoma
MOLT-4 leukemia = system: MOLT-4 leukemia
KM12 colon = system: KM12 colon
RXF 393 renal = system: RXF 393 renal
CAKI-1 renal = system: CAKI-1 renal
DMS 114 small cell lung = system: DMS 114 small cell lung
SNB-19 CNS = system: SNB-19 CNS
NCI-H23 lung = system: NCI-H23 lung
HCT-116 colon = system: HCT-116 colon
IGROV1 ovarian = system: IGROV1 ovarian
K-562 leukemia = system: K-562 leukemia
SK-MEL-28 melanoma = system: SK-MEL-28 melanoma
SN12C renal = system: SN12C renal
A498 renal = system: A498 renal

CCNC(=O)/C=C/CCC#Cc1ccc(-c2ccc(-c3cccs3)s2)s1
TGI (RPMI-8226 leukemia): > 100 µM | TGI (UO-31 renal): > 100 µM | TGI (SK-MEL-2 melanoma): > 100 µM | TGI (OVCAR-3 ovarian): > 100 µM | TGI (U251 CNS): > 100 µM | TGI (OVCAR-8 ovarian): > 100 µM | TGI (EKVX NSCLC): > 100 µM | TGI (HCT-15 colon): > 100 µM | TGI (OVCAR-4 ovarian): > 100 µM | TGI (LOX IMVI melanoma): > 100 µM | TGI (HT29 colon): > 100 µM | TGI (SNB-78 CNS): > 100 µM | TGI (UACC-257 melanoma): > 100 µM | TGI (DMS 273 small cell lung): > 100 µM | TGI (786-0 renal): > 100 µM | TGI (KM20L2 colon): > 100 µM | TGI (NCI-H522 lung): > 100 µM | TGI (HOP-92 NSCLC): > 100 µM | TGI (UACC-62 melanoma): > 100 µM | TGI (SW-620 colon): > 100 µM | TGI (XF 498 CNS): 7.19 µM | TGI (CCRF-CEM leukemia): > 100 µM | TGI (HOP-62 NSCLC): > 100 µM | TGI (SF-539 CNS): > 100 µM | TGI (SR leukemia): > 100 µM | TGI (OVCAR-5 ovarian): > 100 µM | TGI (LXFL 529 NSCLC): > 100 µM | TGI (HL-60(TB) leukemia): > 100 µM | TGI (SK-MEL-5 melanoma): > 100 µM | TGI (SF-268 CNS): > 100 µM | TGI (SF-295 CNS): > 100 µM | TGI (M19-MEL melanoma): > 100 µM | TGI (M14 melanoma): > 100 µM | TGI (SNB-75 CNS): > 100 µM | TGI (ACHN renal): > 100 µM | TGI (COLO 205 colon): 3.19 µM | TGI (TK-10 renal): > 100 µM | TGI (A549 NSCLC): > 100 µM | TGI (SK-OV-3 ovarian): > 100 µM | TGI (DLD-1 colon): > 100 µM | TGI (HCC-2998 colon): > 100 µM | TGI (NCI-H460 lung): > 100 µM | TGI (NCI-H226 lung): > 100 µM | TGI (HOP-18 NSCLC): > 100 µM | TGI (MALME-3M melanoma): > 100 µM | TGI (MOLT-4 leukemia): > 100 µM | TGI (KM12 colon): > 100 µM | TGI (RXF 393 renal): > 100 µM | TGI (CAKI-1 renal): > 100 µM | TGI (DMS 114 small cell lung): > 100 µM | TGI (SNB-19 CNS): > 100 µM | TGI (NCI-H23 lung): > 100 µM | TGI (HCT-116 colon): > 100 µM | TGI (IGROV1 ovarian): > 100 µM

COc1cc(N=Nc2ccccc2)cc(/C=N\[N-]C(N)=S)c1[O-].COc1cc(N=Nc2ccccc2)cc(/C=N\[N-]C(N)=S)c1[O-].[Fe+4]
GI50 (RPMI-8226 leukemia): 18.2 µM | TGI (RPMI-8226 leukemia): > 100 µM | GI50 (UO-31 renal): 30.6 µM | TGI (UO-31 renal): > 100 µM | GI50 (K-562 leukemia): 16.1 µM | TGI (K-562 leukemia): > 100 µM | GI50 (SK-MEL-2 melanoma): 7.72 µM | TGI (SK-MEL-2 melanoma): 50.4 µM | GI50 (OVCAR-3 ovarian): > 100 µM | TGI (OVCAR-3 ovarian): > 100 µM | GI50 (OVCAR-8 ovarian): 29.1 µM | TGI (OVCAR-8 ovarian): > 100 µM | GI50 (EKVX NSCLC): > 100 µM | TGI (EKVX NSCLC): > 100 µM | GI50 (OVCAR-4 ovarian): 17.8 µM | TGI (OVCAR-4 ovarian): > 100 µM | GI50 (HT29 colon): 34.9 µM | TGI (HT29 colon): > 100 µM | GI50 (SNB-78 CNS): > 100 µM | TGI (SNB-78 CNS): > 100 µM | GI50 (UACC-257 melanoma): > 100 µM | TGI (UACC-257 melanoma): > 100 µM | GI50 (786-0 renal): 36.2 µM | TGI (786-0 renal): > 100 µM | GI50 (HOP-92 NSCLC): > 100 µM | TGI (HOP-92 NSCLC): > 100 µM | GI50 (UACC-62 melanoma): 0.378 µM | TGI (UACC-62 melanoma): > 100 µM | GI50 (SW-620 colon): 50.2 µM | TGI (SW-620 colon): > 100 µM | GI50 (CCRF-CEM leukemia): 15.8 µM | TGI (CCRF-CEM leukemia): 92.6 µM | GI50 (HOP-62 NSCLC): 23.4 µM | TGI (HOP-62 NSCLC): 89.9 µM | GI50 (SF-539 CNS): 43.5 µM | TGI (SF-539 CNS): > 100 µM | GI50 (LXFL 529 NSCLC): 13.7 µM | TGI (LXFL 529 NSCLC): > 100 µM | GI50 (HL-60(TB) leukemia): 12.6 µM | TGI (HL-60(TB) leukemia): > 100 µM | GI50 (SK-MEL-5 melanoma): 13.5 µM | TGI (SK-MEL-5 melanoma): 49 µM | GI50 (SF-268 CNS): 12.2 µM | TGI (SF-268 CNS): > 100 µM | GI50 (M19-MEL melanoma): 16.8 µM | TGI (M19-MEL melanoma): 75.9 µM | GI50 (M14 melanoma): > 100 µM | TGI (M14 melanoma): > 100 µM | GI50 (SNB-75 CNS): 35.2 µM | TGI (SNB-75 CNS): > 100 µM | GI50 (COLO 205 colon): 24.3 µM | TGI (COLO 205 colon): 61.3 µM | GI50 (TK-10 renal): 48.1 µM | TGI (TK-10 renal): > 100 µM | GI50 (A549 NSCLC): 46.4 µM | TGI (A549 NSCLC): > 100 µM | GI50 (SK-OV-3 ovarian): > 100 µM | TGI (SK-OV-3 ovarian): > 100 µM | GI50 (DLD-1 colon): 18.5 µM | TGI (DLD-1 colon): > 100 µM | GI50 (HCC-2998 colon): 29.7 µM | TGI (HCC-2998 colon): > 100 µM | GI50 (SK-MEL-28 melanoma): 24.4 µM | TGI (SK-MEL-28 melanoma): > 100 µM | GI50 (NCI-H226 lung): > 100 µM | TGI (NCI-H226 lung): > 100 µM | GI50 (MALME-3M melanoma): 59.6 µM | TGI (MALME-3M melanoma): > 100 µM | GI50 (MOLT-4 leukemia): 5.59 µM | TGI (MOLT-4 leukemia): 44.9 µM | GI50 (KM12 colon): 23 µM | TGI (KM12 colon): > 100 µM | GI50 (RXF 393 renal): 10.9 µM | TGI (RXF 393 renal): > 100 µM | GI50 (DMS 114 small cell lung): 11.8 µM | TGI (DMS 114 small cell lung): 83.4 µM | GI50 (SNB-19 CNS): 44.4 µM | TGI (SNB-19 CNS): > 100 µM | GI50 (NCI-H23 lung): 21.1 µM | TGI (NCI-H23 lung): > 100 µM | GI50 (HCT-116 colon): 19.5 µM | TGI (HCT-116 colon): > 100 µM | GI50 (IGROV1 ovarian): 29.1 µM | TGI (IGROV1 ovarian): > 100 µM

[N-]=[N+]=NC1CC(n2cc(COCC(F)(F)F)c(=O)[nH]c2=O)OC1CO (stereo unspecified)
TGI (RPMI-8226 leukemia): > 100 µM | TGI (UO-31 renal): > 100 µM | TGI (K-562 leukemia): > 100 µM | TGI (SK-MEL-2 melanoma): > 100 µM | TGI (OVCAR-3 ovarian): > 100 µM | TGI (U251 CNS): > 100 µM | TGI (OVCAR-8 ovarian): > 100 µM | TGI (EKVX NSCLC): > 100 µM | TGI (OVCAR-4 ovarian): > 100 µM | TGI (LOX IMVI melanoma): > 100 µM | TGI (HT29 colon): > 100 µM | TGI (SNB-78 CNS): > 100 µM | TGI (UACC-257 melanoma): > 100 µM | TGI (DMS 273 small cell lung): > 100 µM | TGI (786-0 renal): > 100 µM | TGI (KM20L2 colon): > 100 µM | TGI (NCI-H522 lung): > 100 µM | TGI (HOP-92 NSCLC): > 100 µM | TGI (UACC-62 melanoma): > 100 µM | TGI (SW-620 colon): > 100 µM | TGI (XF 498 CNS): > 100 µM | TGI (CCRF-CEM leukemia): > 100 µM | TGI (HOP-62 NSCLC): > 100 µM | TGI (SF-539 CNS): > 100 µM | TGI (OVCAR-5 ovarian): > 100 µM | TGI (LXFL 529 NSCLC): > 100 µM | TGI (HL-60(TB) leukemia): > 100 µM | TGI (SK-MEL-5 melanoma): > 100 µM | TGI (SF-268 CNS): > 100 µM | TGI (SF-295 CNS): > 100 µM | TGI (M19-MEL melanoma): > 100 µM | TGI (M14 melanoma): > 100 µM | TGI (SNB-75 CNS): > 100 µM | TGI (ACHN renal): > 100 µM | TGI (COLO 205 colon): > 100 µM | TGI (TK-10 renal): > 100 µM | TGI (A549 NSCLC): > 100 µM | TGI (SK-OV-3 ovarian): > 100 µM | TGI (DLD-1 colon): > 100 µM | TGI (HCC-2998 colon): > 100 µM | TGI (SN12C renal): > 100 µM | TGI (NCI-H460 lung): > 100 µM | TGI (SK-MEL-28 melanoma): > 100 µM | TGI (MALME-3M melanoma): > 100 µM | TGI (MOLT-4 leukemia): > 100 µM | TGI (KM12 colon): > 100 µM | TGI (RXF 393 renal): > 100 µM | TGI (A498 renal): > 100 µM | TGI (CAKI-1 renal): > 100 µM | TGI (DMS 114 small cell lung): > 100 µM | TGI (SNB-19 CNS): > 100 µM | TGI (NCI-H23 lung): > 100 µM | TGI (IGROV1 ovarian): > 100 µM
